# Reference: patent US20230091225A1, “Bifunctional chimeric heterocyclic compounds for targeted degradation of androgen receptors and use thereof” (HINOVA PHARMACEUTICALS INC., priority 2019, published 2023)
# Where two headings read alike, the source gives them in different places.
# Legend:
# LNCaP/AR cells = assay: Inhibition of proliferation of LNCaP/AR prostate cancer cells (CCK-8); type: cell-based
# androgen receptor (AR) = molecular target: T1, androgen receptor (AR) (Homo sapiens, UniProt P10275); assay: Degradation of androgen receptor (AR) protein in VCaP cells by ELISA; type: cell-based; settings: for inhibition at 0.1 µM: 16 h, read-out: % degradation
# T1 sequence (P10275 1-920): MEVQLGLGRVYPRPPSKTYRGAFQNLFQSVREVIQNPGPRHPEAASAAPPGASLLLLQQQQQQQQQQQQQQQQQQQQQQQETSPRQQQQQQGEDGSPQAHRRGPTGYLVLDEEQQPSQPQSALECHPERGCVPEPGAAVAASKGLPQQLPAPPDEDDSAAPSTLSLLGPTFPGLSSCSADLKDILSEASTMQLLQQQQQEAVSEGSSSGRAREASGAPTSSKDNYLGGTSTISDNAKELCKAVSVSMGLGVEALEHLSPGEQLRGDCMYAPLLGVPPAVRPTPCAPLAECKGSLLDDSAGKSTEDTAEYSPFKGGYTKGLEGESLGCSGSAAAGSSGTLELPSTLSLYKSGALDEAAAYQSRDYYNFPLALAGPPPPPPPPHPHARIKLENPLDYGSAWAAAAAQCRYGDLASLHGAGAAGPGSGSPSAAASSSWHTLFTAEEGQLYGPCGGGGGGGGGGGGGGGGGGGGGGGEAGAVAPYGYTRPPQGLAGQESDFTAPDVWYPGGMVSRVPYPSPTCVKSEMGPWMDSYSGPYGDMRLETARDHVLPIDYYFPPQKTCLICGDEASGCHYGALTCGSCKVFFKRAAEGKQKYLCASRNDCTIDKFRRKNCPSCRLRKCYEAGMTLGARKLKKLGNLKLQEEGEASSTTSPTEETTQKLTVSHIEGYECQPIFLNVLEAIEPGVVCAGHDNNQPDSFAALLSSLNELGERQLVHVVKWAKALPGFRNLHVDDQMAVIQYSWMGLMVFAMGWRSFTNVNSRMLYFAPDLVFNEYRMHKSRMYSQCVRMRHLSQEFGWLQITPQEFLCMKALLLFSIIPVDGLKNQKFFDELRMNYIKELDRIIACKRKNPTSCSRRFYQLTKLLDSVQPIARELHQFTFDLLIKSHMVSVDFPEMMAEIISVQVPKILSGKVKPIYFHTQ
# [1] = 144 h, proliferation of LNCap/AR cells, 6 days, CCK-8, read-out: IC50
# [2] = percentage of degraded AR at 100 nM, VCaP cells, ELISA
IC50 (LNCaP/AR cells; [1]) [µM],inhibition at 0.1 µM (androgen receptor (AR); [2]) [%],SMILES,also measured
–,–,"CC(=O)O[C@@H]1C[C@H](C(=O)N[C@H](C)c2ccc(-c3scnc3C)cc2)N(C(=O)[C@H](NC(=O)COCCCCCNc2ccc(C(=O)NC3C[C@]4(C)O[C@@]3(C)[C@@H]3C(=O)N(c5ccc(C#N)c(Cl)c5)C(=O)[C@@H]34)c(F)c2)C(C)(C)C)C1 (stereo partly drawn) [Compound 19, (3S,5R)-1-((2R)-2-(2-((5-((4-(((3aS,4S,7S,7aR)-2-(3-chloro-4-benzonitrile)4,7-dimethyl-1,3-dioxooctahydro-1H-4,7-epoxyisoindolin-5-yl)carbamoyl)-3-fluorophenyl)amino)pentyl)oxy)acetylamino)-3,3-dimethylbutyryl)-5-(((R)-1-(4-(4-methylthiazol-5-yl)phenyl)ethyl)carbamoyl)pyrrolidin-3-yl acetate]","IC50 (LNCaP/AR cells; LNCaP/AR, 144 h): < 0.1 µM; inhibition at 0.1 µM (androgen receptor (AR); VCaP): < 25%"
–,–,"Cc1ncsc1-c1ccc([C@@H](C)NC(=O)[C@H]2C[C@@H](O)CN2C(=O)[C@H](NC(=O)COCCCCCNc2ccc(C(=O)NC3C[C@]4(C)O[C@@]3(C)[C@@H]3C(=O)N(c5ccc(C#N)c(Cl)c5)C(=O)[C@@H]34)c(F)c2)C(C)(C)C)cc1 (stereo partly drawn) [Compound 20, (2R,4S)-1-((2R)-2-(2-((5-((4-(((3aS,4S,7S,7aR)-2-(3-chloro-4-benzonitrile)-4,7-dimethyl-1,3-dioxooctahydro-1H-4,7-epoxyisoindolin-5-yl)carbamoyl)-3-fluorophenyl)amino)pentyl)oxy)acetylamino)-3,3-dimethylbutyryl)-4-hydroxy-N-((R)-1-(4-(4-methylthiazol-5-yl)phenyl)ethyl)pyrrolidine-2-carboxamide]","IC50 (LNCaP/AR cells; LNCaP/AR, 144 h): < 0.1 µM; inhibition at 0.1 µM (androgen receptor (AR); VCaP): 25 to 49%"
< 0.1,25 to 49,[2H]C([2H])([2H])N(C(=O)c1ccc(C#CCCCOCC(=O)N[C@H](C(=O)N2C[C@H](O)C[C@H]2C(=O)N[C@@H](C)c2ccc(-c3scnc3C)cc2)C(C)(C)C)cc1)[C@H]1C(C)(C)[C@H](Oc2ccc(C#N)c(Cl)c2)C1(C)C [Compound 22],–
< 0.1,25 to 49,[2H]C([2H])([2H])N(C(=O)c1ccc(C#CCCCCOCC(=O)N[C@H](C(=O)N2C[C@H](O)C[C@H]2C(=O)N[C@@H](C)c2ccc(-c3scnc3C)cc2)C(C)(C)C)cc1)[C@H]1C(C)(C)[C@H](Oc2ccc(C#N)c(Cl)c2)C1(C)C [Compound 23],–
< 0.1,50 to 79,[2H]C([2H])([2H])N(C(=O)c1ccc(C#CCCCCCOCC(=O)N[C@H](C(=O)N2C[C@H](O)C[C@H]2C(=O)N[C@@H](C)c2ccc(-c3scnc3C)cc2)C(C)(C)C)cc1)[C@H]1C(C)(C)[C@H](Oc2ccc(C#N)c(Cl)c2)C1(C)C [Compound 24],–
< 0.1,< 25,[2H]C([2H])([2H])N(C(=O)c1ccc(C#CCCOCC(=O)N[C@H](C(=O)N2C[C@H](O)C[C@H]2C(=O)N[C@@H](C)c2ccc(-c3scnc3C)cc2)C(C)(C)C)cc1)[C@H]1C(C)(C)[C@H](Oc2ccc(C#N)c(Cl)c2)C1(C)C [Compound 26],–
< 0.1,50 to 79,Cc1ncsc1-c1ccc([C@H](C)NC(=O)[C@@H]2C[C@@H](O)CN2C(=O)[C@@H](NC(=O)COCCC#Cc2ccc3c(c2)CN([C@H]2C(C)(C)[C@H](Oc4ccc(C#N)c(Cl)c4)C2(C)C)C3=O)C(C)(C)C)cc1 [Compound 27],–
< 0.1,25 to 49,[2H]C([2H])([2H])N(C(=O)c1ccc(C#CCCCNC(=O)C2(C(=O)N[C@H](C(=O)N3C[C@H](O)C[C@H]3C(=O)N[C@@H](C)c3ccc(-c4scnc4C)cc3)C(C)(C)C)CC2)cc1)[C@H]1C(C)(C)[C@H](Oc2ccc(C#N)c(Cl)c2)C1(C)C [Compound 28],–
< 0.1,50 to 79,Cc1ncsc1-c1ccc([C@H](C)NC(=O)[C@@H]2C[C@@H](O)CN2C(=O)[C@@H](NC(=O)COCCCN2CCN(c3ccc4c(c3)CN(C3C(C)(C)C(Oc5ccc(C#N)c(Cl)c5)C3(C)C)C4=O)CC2)C(C)(C)C)cc1 (some centres unmarked) [Compound 31],–
< 0.1,50 to 79,"Cc1ncsc1-c1ccc([C@H](C)NC(=O)[C@@H]2C[C@@H](O)CN2C(=O)[C@@H](NC(=O)COC2CN(CCC#Cc3ccc4c(c3)CN([C@H]3C(C)(C)[C@H](Oc5ccc(C#N)c(Cl)c5)C3(C)C)C4=O)C2)C(C)(C)C)cc1 [Compound 32, (2s,4r)-1-((s)-2-(2-((1-(4-(2-((1r,3r)-3-(3-chloro-4-cyanophenoxy)-2,2,4,4-tetramethylcyclobutyl)-1-oxoheteroin-5-yl)-3-butyne-1-yl)azetidine-3-yl)oxy)acetamido)-3,3-dimethylbutyryl)-4-hydroxy-N-((S)-1-(4-(4-methylthiazol-5-yl)phenyl)ethyl)pyrrolidine-2-carboxamide]",–
0.1 to 0.5,0,[2H]C([2H])([2H])N(C(=O)c1ccc(C#CCCCCOCC(=O)N[C@H](C(=O)N2C[C@H](O)C[C@H]2C(=O)N[C@@H](C)c2ccc(-c3scnc3C)cc2)C(C)(C)C)nc1)[C@H]1C(C)(C)[C@H](Oc2ccc(C#N)c(Cl)c2)C1(C)C [Compound 33],–
–,–,Cc1ncsc1-c1ccc([C@H](C)NC(=O)[C@H]2C[C@@H](O)CN2C(=O)[C@@H](NC(=O)COCCCCC#Cc2cc3c(cn2)C(=O)N(C2C(C)(C)C(Oc4ccc(C#N)c(Cl)c4)C2(C)C)C3)C(C)(C)C)cc1 (some centres unmarked) [Compound 38],"IC50 (LNCaP/AR cells; proliferation of LNCap/AR cells, 6 days, CCK-8, read-out: IC50): < 0.1 µM; % degradation (androgen receptor (AR)): B (key: A: >80%; B: 79%-50%; C: 49%-25%; D: <25%)"
< 0.1,50 to 79,Cc1ncsc1-c1ccc([C@H](C)NC(=O)[C@@H]2C[C@@H](O)CN2C(=O)[C@@H](NC(=O)CCn2cc(C#Cc3ccc4c(c3)CN([C@H]3C(C)(C)[C@H](Oc5ccc(C#N)c(Cl)c5)C3(C)C)C4=O)cn2)C(C)(C)C)cc1 [Compound 42],–
< 0.1,50 to 79,Cc1ncsc1-c1ccc([C@H](C)NC(=O)[C@@H]2C[C@@H](O)CN2C(=O)[C@@H](NC(=O)CN2CC(CC#Cc3ccc4c(c3)CN([C@H]3C(C)(C)[C@H](Oc5ccc(C#N)c(Cl)c5)C3(C)C)C4=O)C2)C(C)(C)C)cc1 [Compound 43],–
–,–,"CC(=O)O[C@@H]1CC(C(=O)NC2(c3ccc(-c4scnc4C)cc3)CC2)N(C(=O)[C@@H](NC(=O)COCCCCCNc2ccc(C(=O)N[C@H]3C(C)(C)[C@H](Oc4ccc(C#N)c(Cl)c4)C3(C)C)cc2)C(C)(C)C)C1 (stereo partly drawn) [Compound 46, (3R,5S)-1-((S)-2-(2-((5-((4-(((1r,3r)-3-(3-chloro-4-cyanophenoxy)-2,2,4,4-tetramethylcyclobutyl)carbamoyl)phenyl)amino)pentyl)oxy)acetamido)-3,3-dimethylbutanol)-5-((1-(4-methylthiazol-5-yl)phenyl)cyclopropyl)carbamoyl) pyrrolidin-3-yl acetate]","IC50 (LNCaP/AR cells; LNCaP/AR, 144 h): < 0.1 µM; inhibition at 0.1 µM (androgen receptor (AR); VCaP): 25 to 49%"
< 0.1,50 to 79,Cc1ncsc1-c1ccc(C2(NC(=O)C3C[C@@H](O)CN3C(=O)[C@@H](NC(=O)COCCCCCNc3ccc(C(=O)N[C@H]4C(C)(C)[C@H](Oc5ccc(C#N)c(Cl)c5)C4(C)C)cc3)C(C)(C)C)CC2)cc1 (some centres unmarked) [Compound 47],–
< 0.1,> 80,"Cc1ncsc1-c1ccc([C@H](CO)NC(=O)[C@@H]2C[C@@H](O)CN2C(=O)[C@@H](NC(=O)COCCCCC#Cc2ccc3c(c2)CN([C@H]2C(C)(C)[C@H](Oc4ccc(C#N)c(Cl)c4)C2(C)C)C3=O)C(C)(C)C)cc1 [Compound 48, (2S,4R)-1-((S)-2-(2-((6-(2-(((1r,3r)-3-(3-chloro-4-cyanophenoxy))-2,2,4,4-tetramethylcyclobutyl)-1-oxoisoindolin-5-yl)hex-5-yn-1-yl)oxy)acetamido)-3,3-dimethylbutyryl)-4-hydroxy-N-((R)-2-hydroxy-1-(4-(4-methylthiazol-5-yl)phenyl)ethyl)pyrrolidine-2-carboxamide]",–
0.1 to 0.5,50 to 79,CC1(C)[C@H](Oc2ccc(C#N)c(Cl)c2)C(C)(C)[C@H]1N1Cc2cc(C#CC3CCN(C4CCN(c5cc6c(cc5F)C(=O)N(C5CCC(=O)NC5=O)C6=O)CC4)CC3)ccc2C1=O (some centres unmarked) [Compound 51],–

SMILES,IC50 (LNCaP/AR cells; [1]) [µM],inhibition at 0.1 µM (androgen receptor (AR); [2]) [%],also measured
"CC(=O)O[C@@H]1C[C@@H](C(=O)N[C@@H](CO)c2ccc(-c3scnc3C)cc2)N(C(=O)[C@@H](NC(=O)COCCCCC#Cc2ccc3c(c2)CN([C@H]2C(C)(C)[C@H](Oc4ccc(C#N)c(Cl)c4)C2(C)C)C3=O)C(C)(C)C)C1 [Compound 49, (3R,5S)-1-((S)-2-(2-((6-(2-(((1r,3r)-3-(3-chloro-4-cyanophenoxy))-2,2,4,4-tetramethylcyclobutyl)-1-oxoisoindolin-5-yl)hex-5-yn-1-yl)oxy)acetamido)-3,3-dimethylbutyryl)-5-(((R)-2-hydroxy-1-(4-(4-methylthiazol-5-yl)phenyl)ethyl)carbamoyl)pyrrolidin-3-yl acetate]",–,25 to 49,"IC50 (LNCaP/AR cells; LNCaP/AR, 144 h): < 0.1 µM"
